Experimental data reported in patent US8324212B2, “Compounds for the treatment of hepatitis C” (Bristol-Myers Squibb Company, priority 2010, dated 2012).

Columns and labels:
[1] = target: T1, HCV NS5B RdRp genotype 1b (Hepatitis C virus genotype 1b, UniProt Q9WMX2); assay: HCV NS5B RdRp enzyme assay; assay type: biochemical; settings: standard or modified assay not stated
T1 construct: The cDNA encoding the NS5B protein of HCV, genotype 1b; made in house; host or cells: E. coli BL21 (DE3)
Procedure: HCV NS5B RdRp cloning, expression, and purification. The cDNA encoding the NS5B protein of HCV, genotype 1b, was cloned into the pET21a expression vector. The protein was expressed with an 18 amino acid C-terminal truncation to enhance the solubility. The E. coli competent cell line BL21 (DE3) was used for expression of the protein. Cultures were grown at 37° C. for ˜4 hours until the cultures reached an optical density of 2.0 at 600 nm. The cultures were cooled to 20° C. and induced with 1 mM IPTG. Fresh ampicillin was added to a final concentration of 50 μg/ml and the cells were grown overnight at 20° C.
Cell pellets (3L) were lysed for purification to yield 15-24 mgs of purified NS5B. The lysis buffer consisted of 20 mM Tris-HCl, pH 7.4, 500 mM NaCl, 0.5% triton X-100, 1 mM DTT, 1 mM EDTA, 20% glycerol, 0.5 mg/ml lysozyme, 10 mM MgCl2, 15 ug/ml deoxyribonuclease I, and Complete TM protease inhibitor tablets (Roche). After addition of the lysis buffer, frozen cell pellets were resuspended using a tissue homogenizer. To reduce the viscosity of the sample, aliquots of the lysate were sonicated on ice using a microtip attached to a Branson sonicator. The sonicated lysate was centrifuged at 100,000×g for 1 hr at 4° C. and filtered through a 0.2 μm filter unit (Corning).
The protein was purified using three sequential chromatography steps: Heparin sepharose CL-6B, polyU sepharose 4B, and Hitrap SP sepharose (Pharmacia). The chromatography buffers were identical to the lysis buffer but contained no lysozyme, deoxyribonuclease I, MgCl2 or protease inhibitor and the NaCl concentration of the buffer was adjusted according to the requirements for charging the protein onto the column. Each column was eluted with a NaCl gradient which varied in length from 5-50 column volumes depending on the column type. After the final chromatography step, the resulting purity of the enzyme is >90% based on SDS-PAGE analysis. The enzyme was aliquoted and stored at −80° C.
Standard HCV NS5B RdRp enzyme assay. HCV RdRp genotype 1b assays were run in a final volume of 60 μl in 96 well plates (Costar 3912). The assay buffer is composed of 20 mM Hepes, pH 7.5, 2.5 mM KCl, 2.5 mM MgCl2, 1 mM DTT, 1.6 U RNAse inhibitor (Promega N2515), 0.1 mg/ml BSA (Promega R3961), and 2% glycerol. All compounds were serially diluted (3-fold) in DMSO and diluted further in water such that the final concentration of DMSO in the assay was 2%. HCV RdRp genotype 1b enzyme was used at a final concentration of 28 nM. A polyA template was used at 6 nM, and a biotinylated oligo-dT12 primer was used at 180 nM final concentration. […] Plates were read on a Packard Top Count NXT after >1 hr incubation at room temperature. […]
IC50 values for compounds were determined using seven different [I]. […]

HCV replicon = HCV replicon assay (FRET / luciferase reporter); assay type: cell-based; settings: Hepatitis C virus; HCV replicon cells (HUH-7)
From the text: FRET Assay Preparation. To perform the HCV FRET screening assay, 96-well cell culture plates were used. The FRET peptide (Anaspec, Inc.) (Taliani et al., Anal. Biochem. 1996, 240, 60-67) contains a fluorescence donor, EDANS, near one end of the peptide and an acceptor, DABCYL, near the other end. The fluorescence of the peptide is quenched by […] resonance energy transfer (RET) between the donor and the acceptor, but as the NS3 protease cleaves the peptide the products are released from RET quenching and the fluorescence of the donor becomes apparent. The assay reagent was made as follows: 5× cell Luciferase cell culture lysis reagent from Promega (#E153A) diluted to 1× with dH2O, NaCl added to 150 mM final, the FRET peptide diluted to 20 μM final from a 2 mM stock. […]
Assays. […] After reading in a Cytoflour 4000 instrument (PE Biosystems), plates were rinsed with PBS and then used for FRET assay by the addition of 30 ul of the FRET peptide assay reagent described above (FRET Assay Preparation) per well. The plate was then placed into the Cytoflour 4000 instrument which had been set to 340 excite/490 emission, automatic mode for 20 cycles and the plate read in a kinetic mode. Typically, the signal to noise using an endpoint analysis after the reads was at least three-fold. Alternatively, after Alamar blue reading, plates were rinsed with PBS, 50 ul of DMEM (high glucose) without phenol red was added and plates were then used for luciferase assay using the Promega Dual-Glo Luciferase Assay System.
Compound analysis was determined by quantification of the relative HCV replicon inhibition and the relative cytotoxicity values. To calculate cytoxicity values, the average Alamar Blue fluorescence signals from the control wells were set as 100% non-toxic. […]

HCV = settings: cited from earlier work

T1 sequence (Q9WMX2 2420-2992): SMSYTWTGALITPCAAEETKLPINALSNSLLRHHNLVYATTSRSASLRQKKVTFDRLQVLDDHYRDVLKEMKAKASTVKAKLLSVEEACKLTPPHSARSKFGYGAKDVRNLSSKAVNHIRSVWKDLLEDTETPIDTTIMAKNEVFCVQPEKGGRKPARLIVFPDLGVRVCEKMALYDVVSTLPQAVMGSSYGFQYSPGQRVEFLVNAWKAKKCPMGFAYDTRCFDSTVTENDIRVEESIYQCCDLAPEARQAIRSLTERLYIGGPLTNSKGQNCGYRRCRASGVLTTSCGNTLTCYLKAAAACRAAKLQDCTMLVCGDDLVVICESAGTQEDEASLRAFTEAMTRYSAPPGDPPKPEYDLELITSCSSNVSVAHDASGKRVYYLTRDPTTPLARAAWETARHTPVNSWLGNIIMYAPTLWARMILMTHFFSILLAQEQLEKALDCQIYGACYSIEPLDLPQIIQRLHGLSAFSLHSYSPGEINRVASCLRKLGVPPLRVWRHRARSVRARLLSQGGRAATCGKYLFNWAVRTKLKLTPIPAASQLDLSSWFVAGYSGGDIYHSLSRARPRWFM

Compound	IC50 [1]	EC50 (HCV replicon)	toxicity during extended dosing (HCV; patients, extended dosing of the combination regimens)	HCV RNA levels in patients (HCV; single agent or combined with interferon and ribavirin)
CNC(=O)c1c(-c2ccc(F)cc2)nn2ncc(-c3cc(C(=O)NC4(c5ccccc5)CC4)ccc3C)cc12 [Example 1, 2-(4-fluorophenyl)-N-methyl-5-(2-methyl-5-(1-phenylcyclopropylcarbamoyl)phenyl)pyrazolo[1,5-b]pyridazine-3-carboxamide]	< 17 nM	5 nM	–	–
CNC(=O)c1c(-c2ccc(F)cc2)nn2nccc(-c3cc(C(=O)NC4(c5ccccc5)CC4)ccc3C)c12 [Example 2, 2-(4-fluorophenyl)-N-methyl-4-(2-methyl-5-(1-phenylcyclopropylcarbamoyl)phenyl)pyrazolo[1,5-b]pyridazine-3-carboxamide]	3060 nM	–	–	–
CNC(=O)c1c(-c2ccc(F)cc2)nn2ncc(-c3cc(C(=O)NC4(c5ccccc5)CC4)c(OC)cc3C)cc12 [Example 3, 2-(4-fluorophenyl)-5-(4-methoxy-2-methyl-5-(1-phenylcyclopropylcarbamoyl)phenyl)-N-methylpyrazolo[1,5-b]pyridazine-3-carboxamide]	11 nM	2 nM	–	–
CNC(=O)c1c(-c2ccc(F)cc2)nn2ncc(-c3cc(C(=O)NC4(c5ncccn5)CC4)c(OC)cc3C)cc12 [Example 4, 2-(4-fluorophenyl)-5-(4-methoxy-2-methyl-5-(1-(pyrimidin-2-yl)cyclopropylcarbamoyl)phenyl)-N-methylpyrazolo[1,5-b]pyridazine-3-carboxamide]	14 nM	12 nM	–	–
CNC(=O)c1c(-c2ccc(F)cc2)oc2cc(N(CCO)S(C)(=O)=O)c(C3CC3)cc12 [HCV-796]	–	–	hepatic toxicity observed	showed an ability to reduce HCV RNA levels in patients
